The values that follow come from patent US20140315889A1, “HYDROXAMATE DERIVATIVES FOR HDAC INHIBITOR, AND THE PHARMACEUTICAL COMPOSITION COMPRISING THEREOF” (CHONG KUN DANG PHARMACEUTICAL CORP., priority 2011, published 2014).

For one data set, the target named is HDAC3 (Homo sapiens, UniProt O15379). The data set is described as follows: HDAC enzyme activity test, HDAC3. Type of data set: biochemical. Conditions: Table 11, eleven HDAC isozymes; read-out: Inhibition ability (IC50) against HDAC3. How it is done: (§1) Then, 0.3 μg of enzyme and 10 μM of substrate per well were added, reacted at 30° C. for 60 minutes. Thereto, Fluor de Lys® Developer II (BML-KI176) was added and reacted for 30 minutes. […] From the data, the respective IC50 were calculated by GraphPad Prism 4.0 program.

Another data set concerns the target HDAC2 (Homo sapiens, UniProt Q92769). The data set is described as follows: HDAC enzyme activity test, HDAC2. As to conditions: Table 11, eleven HDAC isozymes; read-out: Inhibition ability (IC50) against HDAC2. It counts as biochemical. As for the experimental part: as §1
The test system of data set [1] is collagen-induced arthritis model. The data set is described as follows: Effectiveness of compound 87 in a collagen-induced arthritis model. It counts as in vivo, DBA1J mice. As to conditions: for clinical score decreased, compared with the positive control group: vs ITF2357 50 mg/kg group. An excerpt: 7-week aged male DBA1J mice were used in the experiment. The animal facility was kept at constant temperature and constant humidity with a 12-hr dark/12-hr light cycle, and the animals were allowed to access food and water ad libitum. The animals were acclimated to the cage for 7 days.
Each arthritis-onset animals were selected and then promptly used in the experiments. The experimental animal groups consist of: • A. two vehicle-control groups administered with only vehicle via s.c. (subcutaneous injection) and p.o. (per oral), • B. a positive control group administered with ITF2357 of 50 mg/kg, and • C. two compound test groups administered with compound 87 in each doses of 10 and 50 mg/kg.
A solution of ITF2357 for administration was prepared using 0.5% methylcellulose as a vehicle. It was administered orally to the animals in a volume of 10 ml/kg once a day for 7 days. A solution of compound 87 for administration was prepared using DMSO as a vehicle just before administration. It was administered in a volume of 2 ml/kg via s.c. once a day for 7 days. Two vehicle-control groups were administered with only vehicle once a day for 7 days via s.c. and p.o. separately.
Bovine type 2 collagen (Chondrex) and complete Freund's adjuvant (Chondrex) are mixed in 1:1 to become an emulsion. Each 0.1 ml of the obtained emulsion was injected to the tail of each mouse intradermally. After 21 days, Bovine type 2 collagen (Chondrex) and incomplete Freund's adjuvant (Chondrex) are mixed in 1:1 to become an emulsion. Each 0.1 ml of the obtained emulsion was injected to the hips of each mouse intradermally for boosting. After boosting, feet of the mice were observed once a day. When clinical score was occurred, the drug administration and its evaluation were started. The criterion of clinical score was according to Experimental Example 3.
All the results were expressed as mean±SEM, and each test group and the control groups (vehicle-control group or positive control group) were compared using one-way ANOVA test (Dunnett's test, p<0.001) with GrapicPad Prism 5.0 program.

Data set [2] has the same test system. Kind of data set: Effectiveness of compound 237 in a collagen-induced arthritis model. Type of data set: in vivo. An excerpt: 6-week aged male DBA1J mice were used in the experiment. The animal facility was kept at constant temperature and constant humidity with a 12-hr dark/12-hr light cycle, and the animals were allowed to access food and water ad libitum. The animals were acclimated to the cage for 7 days.
Each arthritis-onset animals were selected and then promptly used in the experiments. The experimental animal groups consist of • A. a vehicle-control group administered with only vehicle once a day via s.c. (subcutaneous injection), • B. a compound test group administered with compound 237 in dose of 15 mg/kg q.d. (once a day) via s.c., • C. a compound test group administered with compound 237 in dose of 15 mg/kg b.i.d. (twice a day) via s.c., and • D. a compound test group administered with compound 237 in dose of 30 mg/kg q.d. via s.c.
A solution of compound 237 for administration was prepared using Cremophore EL:Ethanol:Saline=1.5:1.5:7 as a vehicle just before administration. It was administered in a volume of 5 ml/kg via s.c. with each doses of 15 and 30 mg/kg once or twice a day.
Bovine type 2 collagen (Chondrex) and complete Freund's adjuvant (Chondrex) are mixed in 1:1 to become an emulsion. Each 0.1 ml of the obtained emulsion was injected to the tail of each mouse intradermally for immunization. After 21 days, Bovine type 2 collagen (Chondrex) and incomplete Freund's adjuvant (Chondrex) are mixed in 1:1 to become an emulsion. Each 0.1 ml of the obtained emulsion was injected to the hips of each mouse intradermally for boosting. After boosting, the mice were divided in each groups, and administered with compound 237 or only vehicle according to the administration schedule. Their body weights and clinical scores were evaluated three times per week.
From each four feet of a mouse, the clinical scores were evaluated according to the following criterion and added together thereby to determine the clinical score of the mouse (normal, 0; and the most severe edema, 16).
All the results were expressed as mean±SEM, and the experimented groups were compared with each other using one-way ANOVA test (Dunnett's test, p<0.001).

Sequence of HDAC3 (O15379 whole entry, species assumed): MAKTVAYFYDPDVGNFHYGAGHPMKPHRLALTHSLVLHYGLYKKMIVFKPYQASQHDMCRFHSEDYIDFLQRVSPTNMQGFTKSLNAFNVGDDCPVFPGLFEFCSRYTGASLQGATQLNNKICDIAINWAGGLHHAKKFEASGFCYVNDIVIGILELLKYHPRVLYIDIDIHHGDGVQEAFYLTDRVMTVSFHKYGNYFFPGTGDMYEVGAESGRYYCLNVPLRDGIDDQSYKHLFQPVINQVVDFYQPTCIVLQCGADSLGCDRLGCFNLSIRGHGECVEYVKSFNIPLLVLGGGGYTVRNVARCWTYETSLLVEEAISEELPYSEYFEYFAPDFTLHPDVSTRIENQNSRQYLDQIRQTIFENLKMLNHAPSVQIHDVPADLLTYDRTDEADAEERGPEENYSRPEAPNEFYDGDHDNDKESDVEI
Sequence of HDAC3 (Q9Y618 395-489 partner limits assumed, species assumed): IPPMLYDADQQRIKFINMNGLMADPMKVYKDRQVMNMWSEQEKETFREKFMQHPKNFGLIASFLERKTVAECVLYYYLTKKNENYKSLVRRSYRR
Sequence of HDAC2 (Q92769 whole entry, species assumed): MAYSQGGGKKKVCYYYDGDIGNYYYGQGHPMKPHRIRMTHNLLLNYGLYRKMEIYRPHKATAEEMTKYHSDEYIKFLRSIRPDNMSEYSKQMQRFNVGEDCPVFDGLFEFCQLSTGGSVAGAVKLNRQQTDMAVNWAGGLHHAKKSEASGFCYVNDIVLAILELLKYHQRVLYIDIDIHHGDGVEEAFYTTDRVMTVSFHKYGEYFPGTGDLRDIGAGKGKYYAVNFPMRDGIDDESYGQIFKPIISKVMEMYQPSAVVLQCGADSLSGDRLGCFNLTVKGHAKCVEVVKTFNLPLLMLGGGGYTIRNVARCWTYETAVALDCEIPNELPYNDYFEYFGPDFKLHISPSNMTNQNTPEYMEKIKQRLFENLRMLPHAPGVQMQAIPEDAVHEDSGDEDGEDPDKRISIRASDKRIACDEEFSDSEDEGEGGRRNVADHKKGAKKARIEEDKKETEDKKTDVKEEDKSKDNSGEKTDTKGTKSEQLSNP

For the compound `CN1CCN(C(=O)N(CCCCCCC(=O)NO)c2ccc(-c3ccc4cnn(C)c4c3)cc2)CC1` [CKD-581, reference compound], the concentration for half-maximal inhibition (IC50) is 0.693 nM on HDAC3 and 1.58 nM on HDAC2.
Regarding `O=C(NO)c1ccc(Cn2c3c(c4ccccc42)C(=O)C(CN2CCOCC2)CC3)cc1` (stereo not drawn) [Compound 87, N-hydroxy-4-((3-(morpholinomethyl)-4-oxo-1,2,3,4-tetrahydrocarbazol-9-yl)methyl)benzamide], the “clinical score decreased, compared with the positive control group” value in data set [1] (10 mg/kg s.c. once a day for 7 days) came out at 44%; in data set [1] (50 mpk s.c. once a day for 7 days), 68%. For the same compound, the body-weight loss result in data set [1] (collagen-induced arthritis mice, 10 and 50 mg/kg s.c.) is reported as “no observation of body-weight loss”.
Regarding `CC1(C)CC(=O)c2c(C(F)(F)F)nn(Cc3ccc(C(=O)NO)cc3)c2C1` [Compound 237, 4-((6,6-dimethyl-4-oxo-3-(trifluoromethyl)-4,5,6,7-tetrahydro-1H-indazol-1-yl)methyl)-N-hydroxybenzamide], the “clinical score decreased, compared with the control group (only vehicle)” value in data set [2] (15 mpk b.i.d. s.c.) stood at 53%; in data set [2] (15 mpk q.d. s.c.), 7%; in data set [2] (30 mpk q.d. s.c.), 65%. Also, the “body-weight loss or toxic side effect” value in data set [2] (during the administration of drug, 15 and 30 mg/kg s.c.) was “body-weight loss or toxic side effect was not observed”.
